Values belong to the molecule of their own block, whether it stands above or below them. The source made the active and inactive calls. No cut-off for these calls is given here.
Legend:
[1] = biological target: Hypoxia-inducible factor 1-alpha (Homo sapiens) (UniProt Q16665); assay: Induction of stabilization of HIF-1alpha in human Hep3B cells by measuring fold change protein level at 500 uM incubated for 3 hrs by Western blot analysis; type: cell-based
[2] = biological target: Hypoxia-inducible factor 1-alpha (Mus musculus) (UniProt Q61221); assay: Induction of stabilization of HIF-1alpha in mouse NIH-3T3-HIF/Luc cells assessed as activation of HRE by measuring […] at 500 uM incubated for 24 hrs by Bright-glo luciferase assay; type: cell-based
[3] = biological target: Hypoxia-inducible factor 1-alpha (Mus musculus) (UniProt Q61221); assay: Induction of stabilization of HIF-1alpha in mouse NIH-3T3-HIF/Luc cells assessed as activation of HRE measured at 24 hrs by Bright-glo luciferase assay; type: cell-based
[4] = biological target: Hypoxia-inducible factor 1-alpha (Homo sapiens) (UniProt Q16665); assay: Induction of stabilization of HIF-1alpha in human Hep3B cells incubated for 24 hrs by Immunoblot analysis; type: cell-based
Mus musculus [5] = assay: Protection against oxygen-induced hypomyelination in mouse pup assessed as increase in bipolar cell activity by measuring amplitude of ERG b-wave administered as ip dose on postnatal day 3, 5, 7 and reared in 80% oxygen exposure on postnatal day 4 to day 8 and measured on postnatal day 11 by electroretinogram analysis; type: functional, organism-based; settings: time 9.0 day
Mus musculus [6] = assay: Protection against oxygen-induced hypomyelination in mouse pup assessed as increase in serpine1 mRNA level in liver administered as ip dose on postnatal day 3, 5, 7 and reared in 80% oxygen exposure on postnatal day 4 to day 8 and measured on postnatal day 11; type: functional, organism-based; settings: time 9.0 day
Mus musculus [7] = assay: Effect on myelination in oxygen-induced hypomyelination mouse pup model assessed as effect on myelin basic protein level in brain administered as ip dose on postnatal day 3, 5, 7 and reared in 80% oxygen exposure on postnatal day 4 to day 8 and measured on postnatal day 11 by Western blot analysis; type: functional, organism-based; settings: time 9.0 day
Mus musculus [8] = assay: Protection against oxygen-induced hypomyelination in mouse pup assessed as increase in Bnip3 mRNA level in liver administered as ip dose on postnatal day 3, 5, 7 and reared in 80% oxygen exposure on postnatal day 4 to day 8 and measured on postnatal day 11; type: functional, organism-based; settings: time 9.0 day
Mus musculus [9] = assay: In vivo inhibition of PHD in Luc-ODD mouse model assessed as stabilization of HIF-1alpha in liver at 1 mM, ip single dose on postnatal day 7 measured after 24 hrs by Bright-glo luciferase assay; type: functional, organism-based
Mus musculus [10] = assay: (§1) Protection against oxygen-induced retinopathy in wild type C57BL/6J mouse pup assessed as reduction in avascular retina at 1 mmol/Kg, ip administered on postnatal day 6, 8, 10 and reared in 75% oxygen exposure on postnatal day 7 to day 12 and measured on postnatal day 17 by lectin based staining analysis; type: functional, organism-based; settings: time 12.0 day
Mus musculus [11] = assay: (§2) Protection against oxygen-induced retinopathy in mouse pup assessed as astrocyte survival administered as ip dose on postnatal day 6, 8, 10 and reared in 75% oxygen exposure on postnatal day 7 to day 12 and measured on postnatal day 17 by isolectin/GFAP based staining analysis; type: functional, organism-based; settings: time 12.0 day
Mus musculus [12] = assay: Protection against oxygen-induced hypomyelination in mouse pup assessed as increase in vegf mRNA level in liver administered as ip dose on postnatal day 3, 5, 7 and reared in 80% oxygen exposure on postnatal day 4 to day 8 and measured on postnatal day 11; type: functional, organism-based; settings: time 9.0 day
[13] = biological target: Hypoxia-inducible factor 1-alpha (Mus musculus) (UniProt Q61221); assay: Induction of stabilization of HIF-1alpha in mouse NIH-3T3-HIF/Luc cells assessed as activation of HRE at 1 to 4 mM measured at 48 hrs by Bright-glo luciferase assay; type: cell-based; settings: dose 1-4 mM
[14] = biological target: Hypoxia-inducible factor 1-alpha (Homo sapiens) (UniProt Q16665); assay: Induction of stabilization of HIF-1alpha in human Hep3B cells at 1 to 4 mM measured at 24 hrs by Immunoblot analysis; type: cell-based; settings: dose 1-4 mM
Mus musculus [15] = assay: In vivo inhibition of PHD in Luc-ODD mouse model assessed as stabilization of HIF-1alpha in liver at 1 mM, ip single dose on postnatal day 8 measured after 3 hrs by Bright-glo luciferase assay; type: functional, organism-based
Mus musculus [16] = assay: as §2, with “glia preservation in total retinal flat mount” for “astrocyte survival”; type: functional, organism-based; settings: time 12.0 day
[17] = biological target: Hypoxia-inducible factor 1-alpha (Homo sapiens) (UniProt Q16665); assay: Induction of stabilization of HIF-1alpha in human Hep3B cells at 1 mM measured at 3 to 6 hrs by Immunoblot analysis; type: cell-based; settings: time 3-6 hrs
Mus musculus [18] = assay: as §1, with “retinal neovascularization” for “avascular retina”; type: functional, organism-based; settings: time 12.0 day
Mus musculus [19] = assay: as §1, with “liver-specific HIF knockout (LHKO)” for “wild type C57BL/6J”, “retinal vaso-obliteration” for “avascular retina”; type: functional, organism-based; settings: time 12.0 day
Mus musculus [20] = assay: In vivo inhibition of PHD in Luc-ODD mouse model assessed as stabilization of HIF-1alpha in kidney at 1 mM, ip single dose on postnatal day 8 measured after 3 hrs by Bright-glo luciferase assay; type: functional, organism-based
[21] = biological target: Hypoxia-inducible factor 1-alpha (Mus musculus) (UniProt Q61221); assay: Induction of stabilization of HIF-1alpha in mouse NIH-3T3-HIF/Luc cells assessed as activation of HRE at 1 mM incubated for 24 hrs by Bright-glo luciferase assay; type: cell-based
[22] = biological target: Hypoxia-inducible factor 1-alpha (Homo sapiens) (UniProt Q16665); assay: Induction of stabilization of HIF-1alpha in human Hep3B cells measured at 3 hrs by Western blot analysis; type: cell-based
Mus musculus [23] = assay: In vivo inhibition of PHD in Luc-ODD mouse model assessed as stabilization of HIF-1alpha in brain at 1 mM, ip single dose on postnatal day 7 measured at 3 to 24 hrs by Bright-glo luciferase assay; type: functional, organism-based; settings: time 3-24 hrs
Mus musculus [24] = assay: as §1, with “retinal vaso-obliteration” for “avascular retina”; type: functional, organism-based; settings: time 12.0 day
Mus musculus [25] = assay: Protection against oxygen-induced hypomyelination in mouse pup assessed as increase in Cox4i2 mRNA level in liver administered as ip dose on postnatal day 3, 5, 7 and reared in 80% oxygen exposure on postnatal day 4 to day 8 and measured on postnatal day 11; type: functional, organism-based; settings: time 9.0 day
Mus musculus [26] = assay: Effect on myelination in oxygen-induced hypomyelination mouse pup model assessed as effect on HIF-1alpha level in brain administered as ip dose on postnatal day 3, 5, 7 and reared in 80% oxygen exposure on postnatal day 4 to day 8 and measured on postnatal day 11 by Western blot analysis; type: functional, organism-based; settings: time 9.0 day

Hypoxia-inducible factor 1-alpha (Homo sapiens), sequence (Q16665 whole entry, looked up): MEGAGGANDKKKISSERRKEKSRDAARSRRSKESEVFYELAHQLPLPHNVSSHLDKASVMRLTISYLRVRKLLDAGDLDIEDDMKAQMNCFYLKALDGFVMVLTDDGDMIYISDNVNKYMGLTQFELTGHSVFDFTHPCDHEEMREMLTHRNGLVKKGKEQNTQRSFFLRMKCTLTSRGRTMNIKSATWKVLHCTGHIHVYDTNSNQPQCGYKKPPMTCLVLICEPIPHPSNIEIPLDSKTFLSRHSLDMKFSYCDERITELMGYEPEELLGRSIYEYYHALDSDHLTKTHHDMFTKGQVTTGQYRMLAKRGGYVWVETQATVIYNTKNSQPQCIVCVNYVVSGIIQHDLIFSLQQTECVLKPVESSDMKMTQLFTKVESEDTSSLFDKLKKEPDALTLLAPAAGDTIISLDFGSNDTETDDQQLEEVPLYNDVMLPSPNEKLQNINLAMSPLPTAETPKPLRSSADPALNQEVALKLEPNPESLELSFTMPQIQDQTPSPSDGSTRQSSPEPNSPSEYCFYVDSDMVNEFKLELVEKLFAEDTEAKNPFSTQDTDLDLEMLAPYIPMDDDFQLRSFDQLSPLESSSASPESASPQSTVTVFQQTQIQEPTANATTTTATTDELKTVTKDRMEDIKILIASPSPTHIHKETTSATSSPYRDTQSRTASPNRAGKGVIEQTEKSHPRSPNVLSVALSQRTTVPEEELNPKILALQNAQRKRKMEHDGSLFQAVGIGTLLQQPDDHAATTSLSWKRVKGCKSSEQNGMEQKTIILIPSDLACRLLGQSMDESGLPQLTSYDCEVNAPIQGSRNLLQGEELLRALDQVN
Hypoxia-inducible factor 1-alpha (Mus musculus), sequence (Q61221 whole entry): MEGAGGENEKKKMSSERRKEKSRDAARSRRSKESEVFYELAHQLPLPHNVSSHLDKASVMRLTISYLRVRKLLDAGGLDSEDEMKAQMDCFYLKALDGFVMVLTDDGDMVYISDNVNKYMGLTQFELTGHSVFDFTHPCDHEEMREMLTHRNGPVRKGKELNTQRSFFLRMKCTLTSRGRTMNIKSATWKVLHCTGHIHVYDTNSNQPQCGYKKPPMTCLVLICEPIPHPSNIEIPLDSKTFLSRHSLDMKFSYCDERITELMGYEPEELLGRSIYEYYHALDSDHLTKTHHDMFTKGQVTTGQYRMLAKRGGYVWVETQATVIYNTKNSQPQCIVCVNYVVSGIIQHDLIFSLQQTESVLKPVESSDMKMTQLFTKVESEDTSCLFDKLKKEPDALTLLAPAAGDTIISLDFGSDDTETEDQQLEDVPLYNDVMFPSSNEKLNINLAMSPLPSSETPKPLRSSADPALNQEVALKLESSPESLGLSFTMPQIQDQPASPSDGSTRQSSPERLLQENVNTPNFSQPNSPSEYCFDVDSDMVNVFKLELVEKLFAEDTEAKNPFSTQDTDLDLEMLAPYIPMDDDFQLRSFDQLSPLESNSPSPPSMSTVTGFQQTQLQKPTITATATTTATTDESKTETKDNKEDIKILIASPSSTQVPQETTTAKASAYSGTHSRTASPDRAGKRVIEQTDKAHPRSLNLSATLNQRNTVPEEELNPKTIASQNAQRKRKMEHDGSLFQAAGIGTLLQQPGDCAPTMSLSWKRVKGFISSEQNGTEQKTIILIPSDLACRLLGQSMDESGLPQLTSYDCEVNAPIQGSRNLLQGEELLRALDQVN

fold change (FC) [1]: 4
fold change (FC) [2]: < 2
SMILES: CCC(=O)OC(C)OC(=O)CNC(=O)C(=O)OC (centres undefined)

fold change (FC) [1]: 2
fold change (FC) [2]: < 1
SMILES: COC(=O)C(=O)NCC(=O)OCOC(C)=O

fold change (FC) [1]: 3
fold change (FC) [2]: < 2
SMILES: COC(=O)OC(C)OC(=O)CNC(=O)C(=O)OC (centres undefined)

fold change (FC) [1]: < 1
fold change (FC) [2]: < 1
SMILES: COC(=O)C(=O)NCC(=O)OCOC(=O)Oc1ccccc1

ED50 [3]: 1140 µM
Activity [4]: Active
Activity [13]: inactive
Activity [14]: inactive
Activity [17]: Active
Activity [21]: Active
ED50 [22]: 2130 µM
SMILES: COC(=O)C(=O)NCC(=O)OC(C)C
Activity (Mus musculus [5]): Active
Activity (Mus musculus [6]): Active; Compound Showed Higher Mrna Expression In Liver Compared To Brain
Activity (Mus musculus [7]): inactive
Activity (Mus musculus [8]): Active; Compound Showed Higher Mrna Expression In Liver Compared To Brain
Activity (Mus musculus [9]): Active
Activity (Mus musculus [10]): Active
Activity (Mus musculus [11]): Active
Activity (Mus musculus [12]): Active; Compound Showed Higher Mrna Expression In Liver Compared To Brain
Activity (Mus musculus [15]): Active
Activity (Mus musculus [16]): Active
Activity (Mus musculus [18]): Active
Activity (Mus musculus [19]): Active; Less Protected Compared To Compound Treated Wild-Type Mouse
Activity (Mus musculus [20]): Active
Activity (Mus musculus [23]): inactive
Activity (Mus musculus [24]): Active
Activity (Mus musculus [25]): Active; Compound Showed Higher Mrna Expression In Liver Compared To Brain
Activity (Mus musculus [26]): inactive

fold change (FC) [1]: 6
fold change (FC) [2]: < 2
SMILES: COC(=O)C(=O)NCC(=O)OC(C)OC(=O)C(C)(C)C (centres undefined)

fold change (FC) [1]: 2
fold change (FC) [2]: < 2
SMILES: COC(=O)C(=O)NCC(=O)OC(C)OC(=O)OC(C)(C)C (centres undefined)

fold change (FC) [1]: 1
fold change (FC) [2]: < 1
SMILES: CCC(=O)OCOC(=O)CNC(=O)C(=O)OC

fold change (FC) [1]: 6
fold change (FC) [2]: < 2
SMILES: COC(=O)C(=O)NCC(=O)OC(C)OC(C)=O (centres undefined)

fold change (FC) [1]: < 1
fold change (FC) [2]: < 1
SMILES: COC(=O)C(=O)NCC(=O)OCOC(=O)OC(C)C

fold change (FC) [1]: 3
fold change (FC) [2]: < 2
SMILES: COC(=O)C(=O)NCC(=O)OC(C)OC(=O)OC(C)C (centres undefined)

fold change (FC) [1]: < 1
fold change (FC) [2]: < 1
SMILES: COC(=O)C(=O)NCC(=O)OCOC(=O)C(C)C

fold change (FC) [1]: 7
fold change (FC) [2]: < 2
SMILES: COC(=O)C(=O)NCC(=O)OC(C)OC(=O)C(C)C (centres undefined)

fold change (FC) [1]: 1
fold change (FC) [2]: < 1
SMILES: COC(=O)C(=O)NCC(=O)OCOC(=O)C(C)(C)C

fold change (FC) [1]: 5
fold change (FC) [2]: < 2
SMILES: COC(=O)C(=O)NCC(=O)OC(C)OC(=O)c1ccccc1 (centres undefined)

fold change (FC) [1]: < 1
fold change (FC) [2]: < 1
SMILES: CCOC(=O)OCOC(=O)CNC(=O)C(=O)OC

fold change (FC) [1]: 3
fold change (FC) [2]: < 2
SMILES: CCOC(=O)OC(C)OC(=O)CNC(=O)C(=O)OC (centres undefined)

fold change (FC) [1]: 5
fold change (FC) [2]: < 2
SMILES: COC(=O)C(=O)NCC(=O)OC(C)OC(=O)Oc1ccccc1 (centres undefined)

fold change (FC) [1]: < 1
fold change (FC) [2]: < 1
SMILES: COC(=O)OCOC(=O)CNC(=O)C(=O)OC

fold change (FC) [1]: 3
fold change (FC) [2]: < 2
SMILES: COC(=O)C(=O)NCC(=O)OCOC(=O)c1ccccc1

fold change (FC) [1]: < 1
fold change (FC) [2]: < 1
SMILES: COC(=O)C(=O)NCC(=O)OCOC(=O)OC(C)(C)C

— ChEMBL document CHEMBL6182928, “Characterization of Hepatotropic Small Molecule Inhibitors of Hypoxia Inducible Factor Prolyl Hydroxylase in the Prevention of Oxygen-Induced Retinopathy” (J Med Chem, 2025)
